We go through three compounds from patent publication US20070173492A1, “1,2-Diaza-dibenzo[e,h]azulenes for the treatment of central nervous system diseases and disorders” (Pliva-Istrazivacki Institut d.o.o., priority 2003, published 2007).

As a reminder, the IC50 is the concentration needed to halve the response being measured. A word on the Ki: it is the dissociation constant of the complex between target and ligand, obtained from inhibition or displacement.

The target in assay [1] is T1, 5-HT2A receptor (Homo sapiens, UniProt P28223).
T1 construct: expressed in transfected cells; alternatively human cortex tissue
T1 sequence (P28223 whole entry): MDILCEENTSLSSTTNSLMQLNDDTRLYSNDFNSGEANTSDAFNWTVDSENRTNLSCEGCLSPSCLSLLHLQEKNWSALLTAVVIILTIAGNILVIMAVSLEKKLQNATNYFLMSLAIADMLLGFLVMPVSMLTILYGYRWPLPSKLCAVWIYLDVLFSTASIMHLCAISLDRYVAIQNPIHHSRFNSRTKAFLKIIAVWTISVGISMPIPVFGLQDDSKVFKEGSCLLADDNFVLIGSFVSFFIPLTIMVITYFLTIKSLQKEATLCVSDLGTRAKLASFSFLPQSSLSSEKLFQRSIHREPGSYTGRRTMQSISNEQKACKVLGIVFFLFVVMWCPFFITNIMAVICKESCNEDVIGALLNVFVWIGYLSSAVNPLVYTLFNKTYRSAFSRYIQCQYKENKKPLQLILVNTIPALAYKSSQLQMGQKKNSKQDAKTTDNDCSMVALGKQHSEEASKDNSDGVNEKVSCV
As to the kind of experiment: radioligand binding assay for 5-HT2A receptor ([3H]-ketanserin). To be noted: human cortex or recombinant 5-HT2A receptor expressed in CHO-K1 cells; for IC50: read-out: binding affinity to 5-HT2A serotonin receptor expressed as IC50 value; for Ki: read-out: binding affinity to 5-HT2A serotonin receptor, Ki value. The procedure:
(§1) The effect of the compounds of the present invention on the neurochemical steady state was determined by in vitro investigations such as a radionuclide-marked radioligand binding assay for 5-HT2A (Bonhaus D. W. Br. J. Pharmacol. 1995, 115:622; Saucier C. J. Neurochem. 1997, 68:1998) and 5-HT2C receptors (Wolf W. A. J. Neurochem. 1997, 69:1449), in vitro binding assay for the σ1 receptor (Thomson W. and Donn R. Arthritis Res. 2002, 4: 302-306) and by in vivo investigations in a tail suspension test (Vogel H. G. and Vogel W. H. Drug Discovery and Evaluation Pharmacological Assays, Springer 1997, 304), in amphetamine-induced hyperlocomotion in mice (Millan M. J. et al, 1998 J. Pharmacol. Exp. Ther. 287: 167-186), in a forced swim test in mice (Porsolt R. D. et al. Arch. Int. Pharmacodyn. 1977, 229:327-336), in meta-chlorophenyl piperazine (m-CPP) test on rats (Drug Dev. Res. 1989, 18:119-144), and in apomorphine, tryptamine, norepinephrine (ATN) test in rats (Arch. Int. Pharmacodyn. 1977, 227:238-253).
(§2) A small concentration of a radioligand having a great affinity for binding to a receptor was incubated with a tissue sample enriched with a certain receptor (1-5 mg of tissue) in a buffered medium (0.2-5 mL). Recombinant human HT2A and HT2C receptors were expressed in CHO-K1 or COS-7 cells and were also used for competitive binding. During incubation the radioligand bound to the receptor. When a binding balance was achieved, the receptors to which the radioligand was bound were separated from those to which said ligand was not bound, and the radioactivity of the receptor/radioligand complex was measured. The interaction of the tested compounds with receptors was tested in competitive binding experiments. Various concentrations of tested compounds were added to the incubation mixture containing a prepared tissue enriched with corresponding receptors and the radioligand. The radioligand binding was inhibited by the test compounds proportionally to the affinity of a certain compound for the receptor and to the concentration of the compound.
The radioligand used for the determination of binding to 5-HT2A receptor was [^3H]-ketanserin and the tissue used was human cortex or recombinant 5-HT2A receptor expressed in CHO-K1 cells.

In assay [2] the target is T2, 5-HT2C receptor (Homo sapiens, UniProt P28335).
T2 construct: expressed in transfected cells; alternatively choroid plexus tissue
T2 sequence (P28335 33-458): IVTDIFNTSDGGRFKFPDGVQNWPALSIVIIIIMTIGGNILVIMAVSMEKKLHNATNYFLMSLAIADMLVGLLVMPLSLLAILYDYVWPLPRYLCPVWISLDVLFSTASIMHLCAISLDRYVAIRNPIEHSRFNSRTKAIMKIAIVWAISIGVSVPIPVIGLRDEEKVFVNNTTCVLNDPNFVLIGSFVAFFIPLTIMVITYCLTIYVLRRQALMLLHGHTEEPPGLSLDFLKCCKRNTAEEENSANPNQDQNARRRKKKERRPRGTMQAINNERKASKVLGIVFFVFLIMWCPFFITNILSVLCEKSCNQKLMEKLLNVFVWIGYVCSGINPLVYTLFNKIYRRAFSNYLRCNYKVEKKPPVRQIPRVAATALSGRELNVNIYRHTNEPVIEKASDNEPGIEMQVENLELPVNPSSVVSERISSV
Nature of the assay: radioligand binding assay for 5-HT2C receptor ([3H]-mesulergine). To be noted: choroid plexus or recombinant 5-HT2C receptor expressed in CHO-K1 cells; for IC50: read-out: binding affinity to 5-HT2C serotonin receptor expressed as IC50 value; for Ki: read-out: binding affinity to 5-HT2C serotonin receptor, Ki value. The procedure: as §1, §2
The radioligand used for the determination of binding to 5-HT2C receptor was [^3H]-mesulergine and the tissue used was choroid plexus or recombinant 5-HT2C receptor expressed in CHO-K1 cells.

As for `CN(C)CCOCc1n[nH]c2c1-c1ccccc1Oc1ccc(Cl)cc1-2` [[2-(11-chloro-1H-8-oxa-1,2-diaza-dibenzo[e,h]azulen-3-ylmethoxy)-ethyl]-dimethyl-amine], the IC50 in assay [1] and in assay [2] was less than 200 nM in each case. Besides, the Ki in assay [1] and in assay [2] was less than 100 nM throughout.
Consider `CN(C)CCCOCc1c2c(nn1CCc1ccccc1)-c1ccccc1Sc1ccccc1-2` [dimethyl-[3-(2-phenethyl-2H-8-thia-1,2-diaza-dibenzo[e,h]azulen-3-ylmethoxy)-propyl]-amine], for which, in assay [1], the IC50 is less than 200 nM and the inhibitory constant (Ki) was less than 100 nM. For the same compound, in assay [2], the half-maximal inhibitory concentration (IC50) was less than 200 nM and the Ki is less than 100 nM.
As for `CN(C)CCCOCc1n[nH]c2c1-c1ccccc1Sc1ccccc1-2` [dimethyl-[3-(11H-8-thia-1,2-diaza-dibenzo[e,h]azulen-3-ylmethoxy)-propyl]-amine], in assay [1], the IC50 is less than 200 nM and the inhibition constant Ki is less than 100 nM. For the same compound, in assay [2], the half-maximal inhibitory concentration (IC50) was less than 200 nM and the Ki was less than 100 nM.
